Experimental data taken from patent US20200384161A1, “COMPOSITE ANTI-RESTENOSIS DRUG FOR CORONARY DRUG-ELUTING STENT AND CONTROLLED RELEASE SYSTEM THEREOF” (XINXIN MEDICAL TECHNOLOGY (SHANGHAI) CO. LTD, priority 2017, published 2020).

Legend:
[1] = test system: primary smooth muscle cells of porcine coronary vessels; assay: In vitro effect of arsenic trioxide on primary porcine coronary vascular smooth muscle cells (total cell number); format: cell-based
Source text: (§1) FIGS. 1 and 2 show the effects of arsenic trioxide on primary smooth muscle cells and primary endothelial cells of porcine coronary vessels in in vitro experiments. In the figures, the vertical axis represents the total number of cells in the wells of the culture plate, and the horizontal axis represents the concentration of the arsenic trioxide solution. Each curve represents the effect of arsenic trioxide at various concentrations on apoptosis (decrease in total number of cells) at a given time. […] However, for smooth muscle cells, cells apoptosis began even at low concentrations (3 μM) from Day 2 (FIG. 1). […] Arsenic trioxide may induce apoptosis of smooth muscle cells while having poor inhibitory effect on endothelial cells or even promoting their growth.

[2] = test system: primary endothelial cells of porcine coronary vessels; assay: In vitro effect of arsenic trioxide on primary porcine coronary endothelial cells (total cell number); format: cell-based
Source text: as §1

VSMCs = conditions: Li Hui et al. 2010; cited from earlier work
[3] = cited from earlier work

arsenic trioxide
concentration of arsenic trioxide at which smooth muscle cell apoptosis began ([1]; from Day 2, decrease in total number of cells (FIG. 1)): 3 µM | pro-apoptotic effect on smooth muscle cells ([1]; when it reaches a certain dose): strong pro-apoptotic effect | pro-apoptotic effect on endothelial cells [2]: not obvious | proliferation of endothelial cells ([2]; FIG. 2): promoting proliferation of endothelial cell to a certain extent | effect on endothelial cells ([2]; at a concentration of 12 μM or below (FIG. 2)): little effect | effect on endothelial cell growth ([2]; first to the third day upon drug action): stimulation of growth | mitochondrial transmembrane potential (Δψm) (VSMCs): could induce a decrease of mitochondrial transmembrane potential | solubility in common solvents ([3]; common (organic) solvents such as ethanol): cannot be dissolved | solubility in water ([3]; only one crystal form out of three): slightly soluble
